Here are results for 1 substance from patent US10111901B2, “Beta-glucan in combination with anti-cancer agents affecting the tumor microenvironment” (Biothera, Inc., priority 2014, dated 2018).

In one assay the test system is M1 macrophages. The assay is described as follows: Flow cytometry of M1/M2-specific markers on M1 macrophages derived from vehicle- or β-glucan-treated whole blood. It counts as cell-based, human. As to the method:
CD14^+ monocytes from human whole blood were enriched using Ficoll gradient and magnetic bead separation. Enriched monocytes (5×10^5 cells per mL) were then cultured in either M1-polarizing (XVivo 10 media (Lonza Group) supplemented with 5% autologous serum and 100 ng/mL recombinant human granulocyte macrophage colony-stimulating factor (rhGM-CSF) (R&D Systems) or M2-polarizing (XVivo 10 media supplemented with 10% autologous serum and 50 ng/mL recombinant human macrophage colony-stimulating factor (rhM-CSF) (R&D Systems) conditions for 6 days. In experiments performed to evaluate the effect of β-glucan, whole blood was first incubated with vehicle (sodium citrate buffer) or 25 μg/mL soluble β-glucan for 2 hours at 37° C. and then the monocytes were isolated and differentiated. Morphology was checked before macrophages were harvested for phenotypic analysis. Culture medium of the day 6 macrophage culture (MCM) was collected, spun down to remove contaminated cell pellet and then frozen down for subsequent cytokine analysis by ELISA or used to setup a co-culture with CD3 & CD28-stimulated CD4 T cells (MCM-CD4 T) for evaluation of either surface markers or CD4 T cell proliferation. The macrophages were used to setup a co-culture with CD3 & CD28- or CD3 only-stimulated CD4 T cells (Mac-CD4 T) on day 6 for evaluation of either surface marker modulation or effect on CD4 T cell proliferation. For Mac-CD4 T cell proliferation study, M1 or M2 macrophages were cultured with CD3 & CD28- or CD3 only-stimulated, CFSE-labeled, autologous CD4 T cells at a 1:10 ratio. T cell proliferation was measured at the end of the experiment (day 9-day 11) by flow cytometry, and results are graphically shown as CFSE-dilution peaks. The assessment of CD3-only stimulated T cells was always done on day 11. Quantitative results were reported as the Division Index (the average number of cell divisions a population underwent) calculated for each of the triplicate wells in each of the culture conditions. Culture supernatants of Mac-CD4 T co-cultures were collected for subsequent cytokine analysis.
M1 and M2 macrophages from vehicle- or β-glucan-treated whole blood were prepared as described above. […] In addition, surface expression of CD86 was enhanced as well as both protein and mRNA levels of PD-L1 (FIG. 2B).
Expression of a panel of markers was evaluated by flow cytometry for vehicle- and β-glucan-treated, high binder-derived M1 and M2 macrophages (CD163 was evaluated twice).
CD163 and CD86 were evaluated by flow cytometry for vehicle- and β-glucan-treated, low binder-derived M1 and M2 macrophages.
Background: Flow cytometry measures light scatter and fluorescence of single cells or particles in a stream.

Another assay deals with CD4 T cells. Put plainly: MCM-CD4 T cell proliferation and surface marker study. The format is cell-based, human. As to the method:
For MCM-CD4 T cell proliferation study, CD3 & CD28-stimulated, CFSE-labeled CD4 T cells were cultured with 50% MCM. T cell proliferation was measured on day 11 as described above. Culture supernatants of the MCM-CD4 T cell co-culture were collected for subsequent cytokine analysis. MCM-CD4 T cell surface marker evaluation was performed as described above.
To determine whether soluble factors secreted from β-glucan-treated M2 macrophages are required, measurements were carried out of CD4 T cell proliferation co-cultured with β-glucan-treated M2 macrophages MCM (50% of volume) and surface activation marker modulation on T cells incubated with the MCM were observed. FIG. 9 is representative of 2 different experiments. […] In addition, the CD4 T cells cultured in vehicle- and β-glucan-treated M2 macrophage MCM were evaluated for modulation of co-stimulatory or co-inhibitory molecules (CD80, CD28, CTLA-4, 4-1BB and PD-1).
(§1) To test this, M2 macrophages were prepared as described above with a few modifications. The whole blood of a low binder was spun down to remove the plasma and then the cells were reconstituted with serum obtained from a high binder. The reconstituted blood was treated with vehicle or β-glucan (25 μg/mL) for 2 hours at 37° C. The monocytes were evaluated for binding by using anti-β-glucan specific monoclonal antibody and subsequent flow cytometry.

The next assay concerns CD4 and CD8 T cells. The assay is described as follows: Allogeneic mixed lymphocyte reaction (allo-MLR) with mMoDC. The format is cell-based, human.
The test system of the next assay is monocytes. Put plainly: β-glucan binding to monocytes in whole blood, serum cross-over. The format is cell-based, human. As to the method:
as §1

Another assay relates to CD33+CD11b+ cells (MDSC). Put plainly: Suppression of T cell proliferation by cord blood-derived MDSC. To be noted: 2:1 ratio of CD8 T cells to MDSCs, vs citrate buffer. It counts as cell-based, human. As to the method: In another study, human cord blood was enriched for CD34^+ cells and cultured for 9 days to produce CD33^+CD11b^+ cells (MDSC). The MDSC were then treated with soluble β-glucan or citrate buffer (control) and evaluated for their ability to suppress T cell proliferation. The T cell proliferation assay was carried out at a 2:1 ratio of CD8 T cells to treated or untreated MDSCs.

For a further assay, the system named is MC38 tumor cells. The assay is described as follows: MC38 tumor model, tumor-free survival. The format is in vivo. Particulars: C57BL/6 mice, MC38 s.c.; biweekly from day 3; 1.2 mg/mouse IMPRIME PGG, 100 μs/mouse anti-PDL-1; survivors/group size. As to the method: In another animal study, mice were injected with MC38 tumor cells and randomized into treatment groups. 8 to 12 week-old female C57BL/6 mice were injected with 1×10^6 MC38 tumor cells, a colon adenocarcinoma that expresses low levels of PD-L1, in a volume of 0.1 ml injected subcutaneously in the flank. Mice were dosed biweekly starting on day 3 with the following agents: • 0.2 ml/mouse vehicle • 1.2 mg/mouse IMPRIME PGG (Biothera, Inc.) • 100 μs/mouse anti-PDL-1 Clone: 10F.9G2 BioXcell Catalog#: BE0101
Blood samples were collected 1 hour prior to dose 1, 2 hours after dose 3, the endpoint and 2 hours after the last dose (day 20). Treatment groups included vehicle (PBS control), IMPRIME PGG alone, anti-PD-L1 antibody alone and anti-PD-L1+IMPRIME PGG. Tumors were randomized to treatment groups once sizes reached a group mean of 150 mm^3.

Where [1] appears, read: M1 macrophages, high binder, 25 μg/mL.

As for “β(1,6)-[poly-(1,3)-D-glucopyranosyl]-poly-β(1,3)-D-glucopyranose [β-glucan]”, in the assay with M1 macrophages (setting [1]), the “CD86 median MFI” value was 2113, the “CD163 (1) median MFI” value was 158, the “CD163 (2) median MFI” value turned out to be 230 and the “CD206 median MFI” value is recorded as 816. In the assay on M1 macrophages (setting [1]), the “CD209 median MFI” value is listed as 318 and the “CD274 (PD-L1) median MFI” value amounted to 5563. For the same substance, the “HLA-DR median MFI” value in the assay on M1 macrophages (M1 macrophages, high binder, whole blood treated with 25 μg/mL soluble β-glucan 2 hours) is reported as 667. In the assay on M1 macrophages (M1 macrophages, low binder), the “CD86 median MFI” value came to 3179 and the “CD163 median MFI” value is listed as 132. In the assay with M1 macrophages (β-glucan pretreatment of whole blood), the “M1 macrophage phenotype (panel of M1/M2-specific markers)” value is recorded as “did not affect M1 macrophage phenotype”. The “T cell markers (CD80, CD28, CTLA-4, 4-1BB and PD-1)” value in the assay on CD4 T cells (CD4 T cells cultured in β-glucan-treated M2 macrophage MCM (data not shown)) was “no change”. In addition, the “CD4 T cell proliferation” value with CD4 T cells (MCM of M2 macrophages of a low binder crossed-over with high binder's serum, 25 μg/mL) is listed as “significantly higher ability to enhance”. Besides, the “CD4 T cell proliferation” value in the assay with CD4 T cells (β-glucan-treated M2 macrophage MCM (50% of volume) vs vehicle-treated MCM) was “significantly higher ability to enhance”. The “immunogenicity in allo-MLR (CD4 and CD8 T cell expansion)” value in the assay on CD4 and CD8 T cells (β-glucan-treated mMoDC from high binders) is given as “increased immunogenicity”. The IFN-γ production entry in the assay with CD4 and CD8 T cells (β-glucan-treated mMoDC from high binders vs low binders and vehicle-treated mMoDCs) is listed as “able to modulate IFN-γ production”. Further, the “binding of β-glucan to monocytes” value in the assay on monocytes (low binder's whole blood with high binder's serum containing higher levels of ABA) is given as “significantly higher binding”. In addition, the “binding of β-glucan to monocytes” value in the assay on monocytes (whole blood of a low binder) was “did not bind”. The “suppression of T cell proliferation by MDSC” value in the assay on CD33+CD11b+ cells (MDSC) is listed as “less suppressive”. Also, the “Tumor-free Survivors (day 29)” value in the assay on MC38 tumor cells was 2/18.
